According to ChEMBL document CHEMBL1201862, “PubChem BioAssay data set” (2004):
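Growth conditions: 96-well plates. Treatment: test compound, 48 hours, 5 concentrations. Analysis: linear interpolation between bracketing concentrations; unreached endpoints set to highest concentration. The concentration for 50% growth inhibition is given as GI50.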 Calls of active or inactive are those of the source. No stated cut-off is given here; in the data, active = GI50 up to about 1.1 µM and inactive = higher.

Key:
Test in all cases: NCI-60 cell line screen, 48 h
PC-3 = tested on: PC-3
K562 = tested on: K562
SNB-75 = tested on: SNB-75
M14 = tested on: M14
EKVX = tested on: EKVX
MCF7 = tested on: MCF7
HOP-62 = tested on: HOP-62
MDA-MB-231 = tested on: MDA-MB-231
RXF 393 = tested on: RXF 393
CCRF-CEM = tested on: CCRF-CEM
CAKI-1 = tested on: CAKI-1
SK-MEL-2 = tested on: SK-MEL-2
COLO 205 = tested on: COLO 205
UO-31 = tested on: UO-31
OVCAR-5 = tested on: OVCAR-5
HCC 2998 = tested on: HCC 2998
MOLT-4 = tested on: MOLT-4
UACC-257 = tested on: UACC-257
UACC-62 = tested on: UACC-62
KM12 = tested on: KM12
DU-145 = tested on: DU-145
OVCAR-4 = tested on: OVCAR-4
A549 = tested on: A549
LOX IMVI = tested on: LOX IMVI
TK-10 = tested on: TK-10
SK-MEL-5 = tested on: SK-MEL-5
T47D = tested on: T47D
786-0 = tested on: 786-0
Hs-578T = tested on: Hs-578T
OVCAR-3 = tested on: OVCAR-3
A498 = tested on: A498
HCT-15 = tested on: HCT-15
SK-MEL-28 = tested on: SK-MEL-28
MDA-MB-435 = tested on: MDA-MB-435
SR = tested on: SR
HOP-92 = tested on: HOP-92
U-251 = tested on: U-251
SF-295 = tested on: SF-295
SW-620 = tested on: SW-620
SF-268 = tested on: SF-268
NCI-H23 = tested on: NCI-H23
NCI-H522 = tested on: NCI-H522
IGROV-1 = tested on: IGROV-1
RPMI-8226 = tested on: RPMI-8226
ACHN = tested on: ACHN
NCI-H226 = tested on: NCI-H226
HT-29 = tested on: HT-29
OVCAR-8 = tested on: OVCAR-8
HL-60 = tested on: HL-60
NCI-H460 = tested on: NCI-H460
SK-OV-3 = tested on: SK-OV-3
NCI/ADR-RES = tested on: NCI/ADR-RES
SNB-19 = tested on: SNB-19
MDA-N = tested on: MDA-N
Malme-3M = tested on: Malme-3M
SF-539 = tested on: SF-539
HCT-116 = tested on: HCT-116
SN12C = tested on: SN12C

Measured: GI50

C[C@@H](Br)[C@@H]1CC[C@H]2c3[nH]c4ccccc4c3CCN2C1
17.5 µM: HCT-15
inactive: PC-3 22.4 µM | K562 15.5 µM | SNB-75 18.5 µM | M14 19.8 µM | EKVX 33.1 µM | MCF7 23.7 µM | HOP-62 18.6 µM | MDA-MB-231 16.1 µM | RXF 393 20.4 µM | CCRF-CEM 17.5 µM | CAKI-1 16.6 µM | SK-MEL-2 20.6 µM | COLO 205 13.5 µM | UO-31 24.8 µM | OVCAR-5 34.4 µM | HCC 2998 16 µM | MOLT-4 17.7 µM | UACC-257 27.4 µM | UACC-62 14.5 µM | KM12 14.5 µM | DU-145 29.3 µM | OVCAR-4 28 µM | A549 34.4 µM | LOX IMVI 16.5 µM | TK-10 31.7 µM | SK-MEL-5 15.9 µM | T47D 16.5 µM | 786-0 18.6 µM | Hs-578T 13.3 µM | OVCAR-3 15.6 µM | A498 31.2 µM | SK-MEL-28 24.4 µM | MDA-MB-435 16.3 µM | SR 16.5 µM | HOP-92 18.1 µM | U-251 21.5 µM | SF-295 19.5 µM | SW-620 21.8 µM | SF-268 26.8 µM | NCI-H23 20.5 µM | NCI-H522 13.2 µM | IGROV-1 12.1 µM | RPMI-8226 13.6 µM | ACHN 33.8 µM | NCI-H226 28.6 µM | HT-29 25 µM | OVCAR-8 26.9 µM | HL-60 20 µM | NCI-H460 22.5 µM | SK-OV-3 24.7 µM | NCI/ADR-RES 20.2 µM | SNB-19 20.1 µM | MDA-N 19.4 µM | Malme-3M 18.8 µM

Oc1ccc(N=C2CCC(=C(c3ccccc3)c3ccc(Nc4ccc(O)cc4)cc3)CC2)cc1
inactive: PC-3 96.2 µM | K562 > 100 µM | M14 > 100 µM | MCF7 > 100 µM | MDA-MB-231 75.5 µM | RXF 393 58.6 µM | CCRF-CEM 88.9 µM | SF-539 46.1 µM | CAKI-1 35.4 µM | SK-MEL-2 77.6 µM | COLO 205 33.3 µM | UO-31 57.4 µM | OVCAR-5 > 100 µM | HCC 2998 64.3 µM | MOLT-4 83.6 µM | UACC-257 > 100 µM | UACC-62 55.8 µM | KM12 32.4 µM | DU-145 60.8 µM | OVCAR-4 86.5 µM | A549 83.9 µM | HCT-116 39.4 µM | LOX IMVI 73.3 µM | TK-10 > 100 µM | SK-MEL-5 > 100 µM | 786-0 78.7 µM | A498 > 100 µM | SK-MEL-28 > 100 µM | MDA-MB-435 34.5 µM | SR 19.7 µM | HOP-92 > 100 µM | U-251 47.3 µM | SN12C 54.6 µM | SF-295 > 100 µM | SW-620 58.1 µM | SF-268 50.9 µM | NCI-H23 62.7 µM | NCI-H522 47 µM | RPMI-8226 46.1 µM | ACHN 67.1 µM | NCI-H226 > 100 µM | HT-29 48.8 µM | OVCAR-8 48.5 µM | NCI-H460 85.7 µM | SK-OV-3 62.1 µM | NCI/ADR-RES 80.9 µM | SNB-19 78.5 µM
> 100 µM: HCT-15
